These results are taken from patent US11440898B2, “Isoquinoline compounds, methods for their preparation, and therapeutic uses thereof in conditions associated with the alteration of the activity of beta galactosidase” (Minoryx Therapeutics S.L., priority 2016, dated 2022).

The target in the test is T1, mutated beta-galactosidase (p.R60H canine GLB1) in GM11473 fibroblasts (Canis lupus familiaris, UniProt Q9TRY9, R60H).
T1 construct: host or cells: GM11473 canine GM1 gangliosidosis fibroblasts
T1 sequence (Q9TRY9 30-668 R60H): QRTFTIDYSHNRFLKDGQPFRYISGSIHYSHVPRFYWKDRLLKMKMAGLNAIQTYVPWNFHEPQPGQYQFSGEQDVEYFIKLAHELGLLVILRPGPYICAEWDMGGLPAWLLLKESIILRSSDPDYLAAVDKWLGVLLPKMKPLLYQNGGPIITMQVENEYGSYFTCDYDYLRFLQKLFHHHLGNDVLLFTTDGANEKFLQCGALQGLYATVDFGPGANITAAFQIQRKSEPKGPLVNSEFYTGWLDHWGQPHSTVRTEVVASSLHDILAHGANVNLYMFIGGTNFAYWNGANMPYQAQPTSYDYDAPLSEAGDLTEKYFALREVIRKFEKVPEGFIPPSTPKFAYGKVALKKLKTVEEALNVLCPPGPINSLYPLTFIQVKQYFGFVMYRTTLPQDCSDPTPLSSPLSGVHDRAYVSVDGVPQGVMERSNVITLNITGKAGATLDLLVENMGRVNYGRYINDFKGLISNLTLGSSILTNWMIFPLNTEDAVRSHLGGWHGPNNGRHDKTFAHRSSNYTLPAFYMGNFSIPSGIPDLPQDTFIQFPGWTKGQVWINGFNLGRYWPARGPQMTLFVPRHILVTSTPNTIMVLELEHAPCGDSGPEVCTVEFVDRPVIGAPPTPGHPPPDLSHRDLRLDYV
As to the kind of experiment: Enhancement of β-galactosidase activity measured in GM1 fibroblasts (GM11473), 4-MU-β-D-galactopyranoside substrate. The format is cell-based. The arrangement: key: Increase in comparison with non-treated of >2.5 fold is shown as A; Increase in comparison with non-treated of >1.7-2.5 fold is shown as B; Increase in comparison with non-treated of 1.2-1.7 fold is shown as C; D means that no increase compared with non-treated cells was detected in this method. As to conditions: increase in β-galactosidase enzyme activity vs non-treated cells, concentrations between 6 and 50 μM, 4 days incubation. The protocol:
The capacity of the Compounds of the Disclosure to enhance mutated beta-galactosidase activity levels in GM1 fibroblasts was assayed as follows.
Fibroblasts homozygous for a GM1 gangliosidosis missense mutation (GM11473) (canine fibroblasts homozygous for the GM1 gangliosidosis missense mutation p.R60H equivalent to human p.R59H mutation) were purchased from Coriell Institute for Medical Research (Camden, N.J., USA).
Fibroblasts were seeded at 4×10^4 cells per well in 12-well cell culture plates in Dulbecco's Modified Eagle's Media (DMEM) supplemented with 10% of fetal bovine serum (FBS), 1% penicillin/streptomycin (P/S) (Thermo Fisher Scientific, Waltham, Mass., USA) and incubated at 37° C., 5% CO2 overnight for cell attachment. Subsequently, cells were incubated in the absence or presence of the compounds at the desired concentration for 4 days. After incubation, cells were washed twice with phosphate-buffered saline (“PBS”) and detached using Trypsin-EDTA solution (Sigma Aldrich, St. Louis, Mo., USA) to prepare cell pellets. The pellets were stored at −80° C. until activity assays were performed.
β-Galactosidase activity in cell lysates was measured by using 4-Methylumbelliferyl-β-D-galactopyranoside substrate (Sigma Aldrich, St. Louis, Mo., USA). Briefly, lysates were resuspended in 200 μL of 0.9% NaCl containing 0.01% triton X-100 lysis buffer to promote membrane disruption. The cell suspension was sonicated and centrifuged to remove insoluble materials. Then, lysates were mixed with 4-MU-β-D-galactopyranoside in 100 mM citrate buffer (pH=4) and 100 mM NaCl for 60 min at 37° C. The reaction was terminated by adding 100 mM glycine-NaOH buffer (pH=10.7). The liberated 4-MU was measured on a GloMax Discover plate reader (Promega, Madison, Wis., USA) with excitation at 340 nm and emission at 460 nm. Protein quantification was determined using Pierce BCA Protein Assay Kit (Thermo Fisher Scientific, Waltham, Mass., USA). Measurements were interpolated in a 4-MU standard curve and normalized by protein quantity. Enzyme activities were expressed in treated cells as X-fold increase in comparison with non-treated cells (X=1 represents no enhancement).
The capacity of the Compounds of the Disclosure to produce an increase in β-galactosidase enzyme activity in canine GM1 fibroblasts bearing p.R60H canine GLB1 mutation at concentrations between 6 and 50 μM is denoted as follows: • Increase in comparison with non-treated of >2.5 fold is shown as A. • Increase in comparison with non-treated of >1.7-2.5 fold is shown as B. • Increase in comparison with non-treated of 1.2-1.7 fold is shown as C. • D means that no increase compared with non-treated cells was detected in this method. • ND means “not determined.”
On to `O=S(=O)(NC1CCc2ccccc2C1)c1cccc(Nc2nccc3ccc(Cl)cc23)c1` (stereo not drawn) [Example 70, 3-((7-Chloroisoquinolin-1-yl)amino)-N-(1,2,3,4-tetrahydronaphthalen-2-yl)benzenesulfonamide], for which the “Activity in GM11473 fibroblasts” value is on record as “C (Increase in comparison with non-treated of 1.2-1.7 fold is shown as C)”.
Consider `O=C(NCc1ccc2c(c1)OCCO2)c1ccc(Nc2nccc3ccc(Cl)cc23)nc1` [Example 54, 6-((7-Chloroisoquinolin-1-yl)amino)-N-((2,3-dihydrobenzo[b][1,4]dioxin-6-yl)methyl)nicotinamide], for which the “Activity in GM11473 fibroblasts” value is given as “C (Increase in comparison with non-treated of 1.2-1.7 fold is shown as C)”.
With `O=C(NCc1ccc2nsnc2c1)c1ccc(Nc2nccc3ccc(Cl)cc23)nc1` [Example 59, N-(benzo[c][1,2,5]thiadiazol-5-ylmethyl)-6-((7-chloroisoquinolin-1-yl)amino)nicotinamide] the entry was “C (Increase in comparison with non-treated of 1.2-1.7 fold is shown as C)”; with `N#Cc1ccc2ccnc(Nc3ccc(C(=O)NC4CCc5ccccc5C4)nc3)c2c1` (stereo not drawn) [Example 48, 5-((7-Cyanoisoquinolin-1-yl)amino)-N-(1,2,3,4-tetrahydronaphthalen-2-yl)picolinamide], “A (Increase in comparison with non-treated of >2.5 fold is shown as A)”; with `O=S(=O)(NCC1CCc2ccccc2C1)c1ccc(Nc2nccc3ccc(Cl)cc23)cc1` (stereo not drawn) [Example 78, 4-((7-Chloroisoquinolin-1-yl)amino)-N-((1,2,3,4-tetrahydronaphthalen-2-yl)methyl)benzenesulfonamide], “A (Increase in comparison with non-treated of >2.5 fold is shown as A)”.
With `O=C(NCC(c1cccnc1)N1CCCC1)c1ccc(Nc2nccc3ccc(Cl)cc23)cc1` (stereo not drawn) [Example 6, 4-((7-Chloroisoquinolin-1-yl)amino)-N-(2-(pyridin-3-yl)-2-(pyrrolidin-1-yl)ethyl)benzamide] the entry was “D”.
With `O=S(=O)(NCc1ccc2nsnc2c1)c1cccc(Nc2nccc3ccc(Cl)cc23)c1` [Example 74, N-(benzo[c][1,2,5]thiadiazol-5-ylmethyl)-3-((7-chloroisoquinolin-1-yl)amino)benzenesulfonamide] the entry was “D”.
For the molecule `O=C(NCc1ccc2c(c1)CCCO2)c1cc(Nc2nccc3ccc(Cl)cc23)ccn1` [Example 19, 4-((7-Chloroisoquinolin-1-yl)amino)-N-(chroman-6-ylmethyl)picolinamide], the “Activity in GM11473 fibroblasts” value was “C (Increase in comparison with non-treated of 1.2-1.7 fold is shown as C)”.
Regarding `O=C(NCc1ccc2c(c1)OCCCO2)c1ccc(Nc2nccc3ccc(Cl)cc23)cn1` [Example 35, 5-((7-Chloroisoquinolin-1-yl)amino)-N-((3,4-dihydro-2H-benzo[b][1,4]dioxepin-7-yl)methyl)picolinamide], the “Activity in GM11473 fibroblasts” value was “C (Increase in comparison with non-treated of 1.2-1.7 fold is shown as C)”.
With `O=S(=O)(NCC(c1ccccn1)N1CCOCC1)c1cccc(Nc2nccc3ccc(Cl)cc23)c1` (stereo not drawn) [Example 66, 3-((7-Chloroisoquinolin-1-yl)amino)-N-(2-morpholino-2-(pyridin-2-yl)ethyl)benzenesulfonamide] the entry was “C (Increase in comparison with non-treated of 1.2-1.7 fold is shown as C)”; with `Cn1nnc2c(NS(=O)(=O)c3cccc(Nc4nccc5ccc(Cl)cc45)c3)cccc21` [Example 67, 3-((7-Chloroisoquinolin-1-yl)amino)-N-(1-methyl-1H-benzo[d][1,2,3]triazol-4-yl)benzenesulfonamide], “C (Increase in comparison with non-treated of 1.2-1.7 fold is shown as C)”.
Next, `O=C(NC1CCc2ccccc2C1)c1cc(Nc2nccc3ccc(Cl)cc23)ccn1` (stereo not drawn) [Example 14, 4-((7-Chloroisoquinolin-1-yl)amino)-N-(1,2,3,4-tetrahydronaphthalen-2-yl)picolinamide]: “B (Increase in comparison with non-treated of >1.7-2.5 fold is shown as B)”.
With `COc1ccc2ccnc(Nc3ccnc(C(=O)NCc4ccc5c(c4)OCCO5)c3)c2c1` [Example 25, N-((2,3-dihydrobenzo[b][1,4]dioxin-6-yl)methyl)-4-((7-methoxyisoquinolin-1-yl)amino)picolinamide] the entry was “C (Increase in comparison with non-treated of 1.2-1.7 fold is shown as C)”; with `O=C(NCc1ccccc1)c1cccc(Nc2nccc3ccc(Cl)cc23)c1` [Example 4, N-benzyl-3-((7-chloroisoquinolin-1-yl)amino)benzamide], “D”.
As for `O=C(NCc1ccc2c(c1)OCO2)c1cc(Nc2nccc3ccc(Cl)cc23)ccn1` [Example 17, N-(benzo[d][1,3]dioxol-5-ylmethyl)-4-((7-chloroisoquinolin-1-yl)amino)picolinamide], the “Activity in GM11473 fibroblasts” value is “B (Increase in comparison with non-treated of >1.7-2.5 fold is shown as B)”.
With `O=S(=O)(NC1CCc2ccccc2C1)c1ccc(Nc2nccc3ccc(Cl)cc23)cc1` (stereo not drawn) [Example 77, 4-((7-Chloroisoquinolin-1-yl)amino)-N-(1,2,3,4-tetrahydronaphthalen-2-yl)benzenesulfonamide] the entry was “A (Increase in comparison with non-treated of >2.5 fold is shown as A)”; with `O=C(NCC(c1cccnc1)N1CCCC1)c1cc(Nc2nccc3ccc(Cl)cc23)ccn1` (stereo not drawn) [Example 7, 4-((7-Chloroisoquinolin-1-yl)amino)-N-(2-(pyridin-3-yl)-2-(pyrrolidin-1-yl)ethyl)picolinamide], “C (Increase in comparison with non-treated of 1.2-1.7 fold is shown as C)”.
Take `Cn1nnc2c(NS(=O)(=O)c3ccc(Nc4nccc5ccc(Cl)cc45)cc3)cccc21` [Example 73, 4-((7-Chloroisoquinolin-1-yl)amino)-N-(1-methyl-1H-benzo[d][1,2,3]triazol-4-yl)benzenesulfonamide]: the “Activity in GM11473 fibroblasts” value is reported as “D”.
